Measured values from publication PMC11491487 (Nature Communications, 2024).
Values joined by “and” are separate entries in the source; they are usually repeats but may differ in a detail not shown here. Equal entries are not always repeated.

Assays:
[1] = molecular target: rRyR1 (Oryctolagus cuniculus, UniProt P11716); assay: time-lapse [Ca2+]ER fluorescence assay, HEK293 cells; assay type: cell-based, rabbit
[2] = molecular target: Sf RyR (Spodoptera frugiperda, UniProt A0A4P8L6R5); assay: as above; assay type: cell-based
[3] = molecular target: T1, chiRyR (Oryctolagus cuniculus, UniProt P11716, C4657I/F4564Y/L4792S/R4563K); assay: cell-based; design: species or system rabbit
[4] = molecular target: T2, rRyR1 R4563K (Oryctolagus cuniculus, UniProt P11716, R4563K); assay: time-lapse [Ca2+]ER fluorescence assay, HEK293 cells; assay type: cell-based, rabbit; settings: n = 3
T2 construct: expressed in transfected cells

[5] = molecular target: T3, rRyR1 F4564Y (Oryctolagus cuniculus, UniProt P11716, F4564Y); assay: as above; assay type: cell-based, rabbit; settings: n = 3
T3 construct: expressed in transfected cells

[6] = molecular target: T4, rRyR1 C4657I (Oryctolagus cuniculus, UniProt P11716, C4657I); assay: as above; assay type: cell-based, rabbit; settings: n = 3
T4 construct: expressed in transfected cells

[7] = molecular target: T5, rRyR1 L4792S (Oryctolagus cuniculus, UniProt P11716, L4792S); assay: as above; assay type: cell-based, rabbit; settings: n = 3
T5 construct: expressed in transfected cells

[8] = molecular target: T6, chiRyR-I4657M/G4819E (Oryctolagus cuniculus, UniProt P11716, C4657M/F4564Y/G4819E/L4792S/R4563K); assay: cell-based; design: species or system rabbit
[9] = molecular target: Sf RyR_I4734M/G4891E (Spodoptera frugiperda, UniProt A0A4P8L6R5, G4891E/I4734M); assay: cell-based
[10] = molecular target: T1, chiRyR; assay: biochemical; assay type: biochemical, rabbit
[11] = molecular target: T6, chiRyR-I4657M/G4819E; assay: biochemical; assay type: biochemical, rabbit
[12] = test system: Drosophila melanogaster RyR M4758I; assay: Bioassay of gene-edited Drosophila melanogaster (feeding, mortality after 24 h); assay type: in vivo; settings: for death rate: 24 h
[13] = test system: Drosophila melanogaster RyR G4915E; assay: as above; assay type: in vivo; settings: for death rate: 24 h
[14] = solubility comparison; assay type: physicochemical
[15] = test system: Spodoptera frugiperda; design: method as in PMID 31157506; settings: in vivo; cited from earlier work

With `CNC(=O)c1cc(Cl)cc(C)c1NC(=O)c1cc(Br)nn1-c1ncccc1Cl` [CHL, chlorantraniliprole] as the compound, how does the EC50 [1] read?
Its EC50 is 4900 nM.

And the F/F0 ([2]; CHL 1e-5 uM)?
Its F/F0 is 0.9606 and 0.9752 and 0.9813.

And the F/F0 ([2]; CHL 0.001 uM)?
Its F/F0 is 1.004 and 1.002 and 1.001.

And the F/F0 ([2]; CHL 0.005 uM)?
Its F/F0 is 0.7229 and 0.7431 and 0.7294.

What about the F/F0 ([2]; CHL 0.01 uM) of the same compound?
Its F/F0 is 0.3097 and 0.3094 and 0.2868.

What about the F/F0 ([2]; CHL 0.1 uM) of the same compound?
Its F/F0 is 0.2582 and 0.2663 and 0.2776.

What about the F/F0 ([2]; CHL 0.5 uM) of the same compound?
The F/F0 was 0.268 and 0.2944 and 0.2596.

And the F/F0 ([2]; CHL 1 uM)?
Its F/F0 is 0.2734 and 0.2934 and 0.2867.

And the F/F0 ([2]; CHL 10 uM)?
The F/F0 was 0.2774 and 0.2809 and 0.2932.

What about the F/F0 ([2]; CHL 50 uM) of the same compound?
Its F/F0 is 0.2939 and 0.2698 and 0.3129.

What about the EC50 ([2]; n = 3, read-out: EC50) of the same compound?
The EC50 was 5.5 nM.

And the EC50 [3]?
Its EC50 is 1.6 nM.

And the F/F0 ([3]; CHL 1e-5 uM)?
Its F/F0 is 0.9477 and 0.9176 and 0.9126.

And the F/F0 ([3]; CHL 2.5e-5 uM)?
Its F/F0 is 0.9199 and 0.9229 and 0.931.

And the F/F0 ([3]; CHL 5e-5 uM)?
The F/F0 was 0.8883 and 0.929 and 0.9092.

And the F/F0 ([3]; CHL 0.0001 uM)?
The F/F0 was 0.9049 and 0.9411 and 0.8175.

And the F/F0 ([3]; CHL 0.00025 uM)?
The F/F0 was 0.8945 and 0.8973 and 0.8398.

What about the F/F0 ([3]; CHL 0.0005 uM) of the same compound?
Its F/F0 is 0.6917 and 0.6365 and 0.6304.

And the F/F0 ([3]; CHL 0.0025 uM)?
The F/F0 was 0.5122 and 0.4849 and 0.4622.

What about the F/F0 ([3]; CHL 0.005 uM) of the same compound?
The F/F0 was 0.6454 and 0.5393 and 0.4867.

And the F/F0 ([3]; CHL 0.01 uM)?
Its F/F0 is 0.4912 and 0.5046 and 0.4772.

And the F/F0 ([3]; CHL 0.025 uM)?
The F/F0 was 0.5158 and 0.4751 and 0.4992.

And the F/F0 ([3]; CHL 0.05 uM)?
The F/F0 was 0.5374 and 0.5173 and 0.549.

What about the F/F0 ([3]; CHL 0.1 uM) of the same compound?
Its F/F0 is 0.4915 and 0.5257 and 0.4507.

And the F/F0 ([3]; CHL 1 uM)?
The F/F0 was 0.5356 and 0.5199 and 0.5646.

What about the F/F0 ([3]; CHL 3 uM) of the same compound?
The F/F0 was 0.5195 and 0.4435 and 0.4631.

And the F/F0 ([3]; CHL 10 uM)?
The F/F0 was 0.5287 and 0.4905 and 0.48.

What about the F/F0 ([3]; CHL 30 uM) of the same compound?
The F/F0 was 0.5354 and 0.4682 and 0.4761.

What about the F/F0 ([3]; CHL 50 uM) of the same compound?
Its F/F0 is 0.5799 and 0.4954 and 0.5274.

And the EC50 [4]?
Its EC50 is 62.6 nM.

And the EC50 [5]?
The EC50 was 556 nM.

What about the EC50 [6] of the same compound?
The EC50 was 167 nM.

And the EC50 [7]?
Its EC50 is 44.8 nM.

And the F/F0 ([8]; CHL 1e-5 uM)?
Its F/F0 is 0.8891 and 0.8803 and 0.8832.

What about the F/F0 ([8]; CHL 0.0001 uM) of the same compound?
The F/F0 was 0.8817 and 0.9289 and 0.9243.

What about the F/F0 ([8]; CHL 0.001 uM) of the same compound?
The F/F0 was 0.9674 and 0.9402 and 0.9553.

And the F/F0 ([8]; CHL 0.005 uM)?
Its F/F0 is 0.9942 and 0.938 and 0.9411.

What about the F/F0 ([8]; CHL 0.01 uM) of the same compound?
The F/F0 was 0.9479 and 0.955 and 0.9174.

What about the F/F0 ([8]; CHL 0.1 uM) of the same compound?
Its F/F0 is 0.9465 and 0.9355 and 0.9097.

What about the F/F0 ([8]; CHL 0.3 uM) of the same compound?
The F/F0 was 0.9306 and 0.9655 and 0.9439.

And the F/F0 ([8]; CHL 0.5 uM)?
Its F/F0 is 0.9145 and 0.8971 and 0.9399.

And the F/F0 ([8]; CHL 1 uM)?
Its F/F0 is 0.9091 and 0.8544 and 0.9005.

What about the F/F0 ([8]; CHL 3 uM) of the same compound?
The F/F0 was 0.8328 and 0.8713 and 0.8682.

And the F/F0 ([8]; CHL 10 uM)?
The F/F0 was 0.808 and 0.819 and 0.7565.

And the F/F0 ([8]; CHL 30 uM)?
Its F/F0 is 0.7257 and 0.6335 and 0.5826.

What about the F/F0 ([8]; CHL 50 uM) of the same compound?
The F/F0 was 0.6512 and 0.5528 and 0.5088.

And the F/F0 ([8]; CHL 100 uM)?
Its F/F0 is 0.5781 and 0.4912.

What about the F/F0 ([8]; CHL 200 uM) of the same compound?
The F/F0 was 0.6274 and 0.5179.

What about the F/F0 ([8]; CHL 500 uM) of the same compound?
The F/F0 was 0.5379 and 0.5182.

What about the EC50 ([8]; EC50, diamide insecticides, n = 3) of the same compound?
Its EC50 is 10300 nM and 14600 nM.

And the EC50 [9]?
The EC50 was 9100 nM.

And the F/F0 ([9]; CHL 0.1 uM)?
The F/F0 was 0.9609 and 0.9591 and 1.0034.

What about the F/F0 ([9]; CHL 1 uM) of the same compound?
Its F/F0 is 0.987 and 0.977 and 0.9858.

And the F/F0 ([9]; CHL 10 uM)?
The F/F0 was 0.5363 and 0.6213 and 0.7359.

And the F/F0 ([9]; CHL 50 uM)?
Its F/F0 is 0.3469 and 0.3845 and 0.4143.

And the F/F0 ([9]; CHL 100 uM)?
Its F/F0 is 0.3178 and 0.3119 and 0.3455.

And the F/F0 ([9]; CHL 150 uM)?
Its F/F0 is 0.3313 and 0.3179 and 0.3624.

What about the F/F0 ([9]; CHL 200 uM) of the same compound?
The F/F0 was 0.3347 and 0.3244 and 0.3692.

What about the EC50 [10] of the same compound?
The EC50 was 1.7 ± 0.3 nM.

What about the “[3H]ryanodine binding (B/Bmax)” value ([10]; CHL 0.010 uM) of the same compound?
Its value is 0.191 and 0.230 and 0.144 and 0.262.

What about the “[3H]ryanodine binding (B/Bmax)” value ([10]; CHL 0.100 uM) of the same compound?
Its value is 0.168 and 0.180 and 0.215.

What about the “[3H]ryanodine binding (B/Bmax)” value ([10]; CHL 1.000 uM) of the same compound?
Its value is 0.199 and 0.219 and 0.215 and 0.312.

What about the “[3H]ryanodine binding (B/Bmax)” value ([10]; CHL 10.000 uM) of the same compound?
The value was 0.246 and 0.234 and 0.250 and 0.215.

What about the “[3H]ryanodine binding (B/Bmax)” value ([10]; CHL 100.000 uM) of the same compound?
Its value is 0.207 and 0.242 and 0.223 and 0.191.

What about the EC50 [11] of the same compound?
Its EC50 is 14700 ± 1600 nM.

And the “[3H]ryanodine binding (B/Bmax)” value ([11]; CHL 10.000 uM)?
Its value is 0.114 and 0.077 and 0.068 and 0.062.

And the “[3H]ryanodine binding (B/Bmax)” value ([11]; CHL 100.000 uM)?
Its value is 0.193 and 0.240 and 0.178 and 0.209.

What about the LD50 ([12]; 24 h feeding, n = 30) of the same compound?
The LD50 was 127.9 nM.

And the death rate ([12]; CHL 0.010 uM)?
Its death rate is 0%.

What about the death rate ([12]; CHL 0.033 uM) of the same compound?
The death rate was 0% and 10%.

And the death rate ([12]; CHL 0.100 uM)?
Its death rate is 60% and 40%.

And the death rate ([12]; CHL 0.333 uM)?
The death rate was 80% and 70%.

What about the death rate ([12]; CHL 1.000 uM) of the same compound?
Its death rate is 100% and 90%.

And the death rate ([12]; CHL 3.333 uM)?
Its death rate is 100%.

What about the death rate ([12]; CHL 10.000 uM) of the same compound?
The death rate was 100%.

And the LD50 ([13]; 24 h feeding, n = 30, heterozygous G4915E/G)?
Its LD50 is 1.6 mM.

What about the death rate ([13]; CHL 1.000 uM) of the same compound?
Its death rate is 0%.

What about the death rate ([13]; CHL 3.333 uM) of the same compound?
The death rate was 0%.

And the death rate ([13]; CHL 10.000 uM)?
Its death rate is 0% and 10%.

What about the death rate ([13]; CHL 33.333 uM) of the same compound?
The death rate was 10%.

What about the death rate ([13]; CHL 100.000 uM) of the same compound?
The death rate was 10% and 20%.

What about the relative solubility [14] of the same compound?
Its relative solubility is “more soluble than TET”.

What about the fold decreased sensitivity [15] of the same compound?
The fold decreased sensitivity was 225 fold.
